The target of this assay is T1, human glycine transporter-2 (GlyT2) (Homo sapiens, UniProt Q9Y345).
T1 construct: The entire coding region of the human GlyT2 cDNA was cloned into the mammalian expression vector pClNeo; expressed in transfected cells; host or cells: Cos-7 cells (African green monkey kidney, ATCC), stably transfected, G418-selected; vector pClNeo
T1 sequence (Q9Y345 1-797): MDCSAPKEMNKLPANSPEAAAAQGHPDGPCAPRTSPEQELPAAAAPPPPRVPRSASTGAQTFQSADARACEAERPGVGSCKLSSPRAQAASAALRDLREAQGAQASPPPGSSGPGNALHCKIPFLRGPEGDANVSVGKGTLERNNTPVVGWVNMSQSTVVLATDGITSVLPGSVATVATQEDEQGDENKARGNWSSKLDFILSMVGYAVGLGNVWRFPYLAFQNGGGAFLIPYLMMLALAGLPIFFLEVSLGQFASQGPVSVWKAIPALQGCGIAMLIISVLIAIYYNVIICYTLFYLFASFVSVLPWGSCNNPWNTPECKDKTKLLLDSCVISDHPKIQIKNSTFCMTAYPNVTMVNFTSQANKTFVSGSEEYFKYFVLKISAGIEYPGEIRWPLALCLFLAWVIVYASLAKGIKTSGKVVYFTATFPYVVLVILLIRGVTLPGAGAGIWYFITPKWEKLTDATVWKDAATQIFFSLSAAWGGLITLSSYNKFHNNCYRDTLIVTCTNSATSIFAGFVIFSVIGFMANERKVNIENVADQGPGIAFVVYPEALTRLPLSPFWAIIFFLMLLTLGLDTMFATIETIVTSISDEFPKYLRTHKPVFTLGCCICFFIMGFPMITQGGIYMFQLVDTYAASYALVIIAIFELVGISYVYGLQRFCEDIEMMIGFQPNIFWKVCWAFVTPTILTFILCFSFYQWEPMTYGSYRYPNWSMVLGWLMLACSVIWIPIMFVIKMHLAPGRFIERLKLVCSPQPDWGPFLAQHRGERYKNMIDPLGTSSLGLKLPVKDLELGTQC
As to the kind of experiment: Inhibition of [14C]-glycine uptake in COS-7 cells transfected with human GlyT2. The class given is cell-based. The following applies: Table 2, 20 μM, 2 h at 37° C., Cos-7 cells stably transfected with human GlyT2. As for the experimental part:
GlyT2 antagonist activity of representative compounds of the invention was determined in accordance with the assay described in the Examples and by measuring the ability of compounds to inhibit the uptake of [^14C]-glycine in COS-7 cells transfected with the human glycine transporter-2 (GlyT2). The GlyT2 antagonist activities of these representative compounds are set forth hereinafter in Table 1.
Cos-7 cells (African green monkey, kidney) from American Type Culture Collection were grown in DMEM supplemented with 10% fetal bovine serum. The entire coding region of the human GlyT2 cDNA was cloned into the mammalian expression vector pClNeo, and then stably transfected into Cos-7 cells. Transfection was performed essentially as described by T. W. Lovenberg et al. (Mol. Pharmacol. 1999, 55:1101–1107): Briefly, cells were grown to 70–80% confluence, removed from the plate with trypsin, and pelleted in a clinical centrifuge. The pellet was resuspended in 400 μL complete medium and transferred to an electroporation cuvette with a 0.4 cm gap between the electrodes (Bio-Rad, 165–2088). One microgram of supercoiled GlyT2 cDNA was added to the cells, and the suspension was mixed. The voltage for the electroporation was set at 0.25 kV, and the capacitance was set at 960 μF. After electroporation, the cuvette contents were diluted to 10 mL with complete medium, and 0.5 mL, 1.0 mL, 2.0 mL and remainder (˜6.5 mL) portions were plated onto four 10-cm dishes. The cells were incubated 24 h before adding 600 μg/mL G418. Colonies that survived selection were isolated and tested for GlyT2 expression.
The day before the assay, the GlyT2 expressing cells were plated into 96-well scintillating microplates (Amersham, RPNQ 0160) at a density of approximately 20,000 cells per well. Cells were grown overnight at 37° C. in 5% CO2 and then washed once with 37° C. HEPES buffered saline (HBS: 150 mM NaCl, 20 mM HEPES, 1 mM CaCl2, 10 mM glucose, 5 mM KCl, 1 mM MgCl2; pH 7.4). Eighty microliters of 37° C. HBS was subsequently added to each well. Test solutions of GlyT2 inhibitors were prepared in HBS from DMSO stock solutions, and 5 μL of test solution was added to each test well. Total transport and non-specific background were determined by adding 5 μL HBS or 5 μL 2 M glycine, respectively, to the appropriate control wells. Plates were then left at rt for 5 min before the addition of 20 μL of 100 μM ^14C-glycine (NEN, NEC 048H) to each well for a final concentration of 20 μM. Plates were incubated for 2 h at 37° C. with 5% CO2. After 2 h the reaction mixtures were removed by aspiration, and the plates were washed once with ice-cold HBS. Plates were sealed with TopSeal (Packard, 6005185) and counted on a Packard TopCount® scintillation counter.

Molecules are shown by their SMILES.

As for `NCCNC(=O)CC[C@H](Cc1ccccc1)NC(=O)Nc1ccc(Oc2ccccc2)cc1` [Example 111, (R)-4-[3-(4-Phenoxy-phenyl)-ureido]-5-phenyl-pentanoic Acid (2-amino-ethyl)-amide], inhibition was half-maximal at 500 nM (IC50). This lies in the sub-micromolar range. `O=C(Nc1cccc(Oc2ccccc2)c1)N[C@@H](Cc1ccccc1)C(=O)NCCCN1CCCC1` [Example 122, (S)-2-[3-(3-Phenoxy-phenyl)-ureido]-3-phenyl-N-(3-pyrrolidin-1-yl-propyl)-propionamide] yielded an IC50 of 440 nM. Then `O=C(Nc1ccc(-c2ccccc2)cc1)N[C@@H](Cc1cccnc1)C(=O)NCCCN1CCCC1` [Example 142, (S)-2-(3-Biphenyl-4-yl-ureido)-3-pyridin-3-yl-N-(3-pyrrolidin-1-yl-propyl)-propionamide], with 685 nM; and `O=C(Nc1ccc(-c2ccccc2)cc1)NC(C(=O)NCCN1CCCC1)(c1ccccc1)c1ccccc1` [Example 143, 2-(3-Biphenyl-4-yl-ureido)-2,2-diphenyl-N-(2-pyrrolidin-1-yl-ethyl)-acetamide], with 8000 nM. `CC(C)[C@@H](CC(=O)NCCN(C(C)C)C(C)C)NC(=O)Nc1ccc(-c2ccccc2)cc1` [Example 146, (R)-3-(3-Biphenyl-4-yl-ureido)-4-methyl-pentanoic Acid (2-diisopropylamino-ethyl)-amide] had a concentration for half-maximal inhibition (IC50) of 595 nM.

On to `O=C(Nc1cccc(-c2ccccc2)c1)N[C@@H](Cc1ccccc1)C(=O)NCCCN1CCCC1` [Example 150, (S)-2-(3-Biphenyl-3-yl-ureido)-3-phenyl-N-(3-pyrrolidin-1-yl-propyl)-propionamide], for which half-maximal inhibition (IC50) was put at 998 nM.

Turning to `NCCCNC(=O)/C=C/[C@H](Cc1ccccc1)NC(=O)Nc1ccc(-c2ccccc2)cc1` [Example 152, (E)-(S)-4-(3-Biphenyl-4-yl-ureido)-5-phenyl-pent-2-enoic Acid (3-amino-propyl)-amide], it took 3160 nM to reach half-maximal inhibition (IC50). This IC50 is about 3.2-fold higher than that of the compound before. `O=C(Nc1ccc(Oc2ccccc2)cc1)N[C@H](CNCCN1CCCC1)Cc1ccccc1` [Example 157, 1-[(S)-1-Benzyl-2-(2-pyrrolidin-1-yl-ethylamino)-ethyl]-3-(4-phenoxy-phenyl)-urea] returned a half-maximal inhibitory concentration (IC50) of 181 nM.

`O=C(Nc1ccc(-c2ccccc2)cc1)N[C@@H](CCCNCCN1CCCC1)Cc1ccccc1` [Example 158, 1-[(S)-1-Benzyl-4-(2-pyrrolidin-1-yl-ethylamino)-butyl]-3-biphenyl-4-yl-urea] yielded an IC50 of 340 nM.

(Values after US7202269B2, “GlyT2 modulators” (Janssen Pharmaceutica N.V., priority 2003, dated 2007).)
